Results published in article PMC3340383, “Synthesis and Evaluation of a Series of 2-Substituted-5-Thiopropylpiperazine (Piperidine)-1,3,4-Oxadiazoles Derivatives as Atypical Antipsychotics” (PLoS ONE, 2012).

Test system: MK-801-induced hyperactivity in mice
Assay: MK-801-induced hyperactivity
Details: mice, po; 95% confidence limits in parentheses

Fc1ccc2c(C3CCN(CCCSc4nnc(-c5cccc6ccccc56)o4)CC3)noc2c1 [Compound 22, 2-(3-(4-(6-fluorobenzo[d]isoxazol-3-yl)piperidin-1-yl)propylthio)-5-(naphthalen-1-yl)-1,3,4-oxadiazole]
MK-801-induced hyperactivity ED50 (B): 3.58 (2.59–8.28) mg/kg
